# In US11172676B2, “Antibacterial resin composition” (TOYO SEIKAN GROUP HOLDINGS, LTD., priority 2011, dated 2021):
# Settings: JIS Z 7260-107
smiles,measurement,value
O=C1NS(=O)(=O)c2ccccc21.[Ag] [saccharin silver],silver concentrations eluted out in 1-octanol or in water (hydrophilic and oleophilic property),"hydrophilic property and oleophilic property which are both superior to those of silver stearate, phthalazone silver or benzotriazole silver"
